Numbered stars: 1 amine (or outer) side, 2 acyl side, 3 side chain; on linkers, the order of the positions; unused ones are H or OH. Bridge positions count the residues as written; N and C are the ends. Square brackets hold non-standard residues; d marks the D form. Peptide text beside a SMILES is read from it. * marks the point of attachment. hPhe(3,5-F2-4-CF3) = N[C@@H](CCc1cc(F)c(C(F)(F)F)c(F)c1)C(=O)O; hPhe(3-Cl-4-CF3) = N[C@@H](CCc1ccc(C(F)(F)F)c(Cl)c1)C(=O)O; hPhe(3-F,4-CF3) = N[C@@H](CCc1ccc(C(F)(F)F)c(F)c1)C(=O)O; X49 = CN([C@@H](Cc1cccc(OC(F)(F)F)c1)C(=O)[*:2])[*:1]; NMePhe(4-Cl) = CN[C@@H](Cc1ccc(Cl)cc1)C(=O)O; NMePhe(2-OMe) = CN[C@@H](Cc1ccccc1OC)C(=O)O; NMePhe(4-Me) = CN[C@@H](Cc1ccc(C)cc1)C(=O)O; NMePhe(4-F) = CN[C@@H](Cc1ccc(F)cc1)C(=O)O; NMeGly(cPent) = CN[C@H](C(=O)O)C1CCCC1; Phe(3-I) = N[C@@H](Cc1cccc(I)c1)C(=O)O; Pro(4,4-F2) = O=C(O)[C@@H]1CC(F)(F)CN1; NMeCha = CN[C@@H](CC1CCCCC1)C(=O)O; NMeGly(cPr) = CN[C@H](C(=O)O)C1CC1; NMeChg = CN[C@H](C(=O)O)C1CCCCC1; N(CH2CH2)2CF2 = FC1(F)CCN(*)CC1; NMeD = CN[C@@H](CC(=O)O)C(=O)O; NMeL = CN[C@@H](CC(C)C)C(=O)O; NMeNva = CCC[C@H](NC)C(=O)O; NMeV = CN[C@H](C(=O)O)C(C)C; d(β3hA) = C[C@@H](N)CC(=O)O; NMeS = CN[C@@H](CO)C(=O)O; NMeA = CN[C@@H](C)C(=O)O; NMeAib = CNC(C)(C)C(=O)O; Nle = CCCC[C@H](N)C(=O)O; Piperidide = C1CCN(*)CC1; Pyrrolidide = C1CCN(*)C1; Ac5c = NC1(C(=O)O)CCCC1; Aze = O=C(O)[C@@H]1CCN1; Ac4c = NC1(C(=O)O)CCC1; CH2CMe2OH = CC(C)(O)C*; Aib = CC(C)(N)C(=O)O; Isopentyl = CC(C)CC*; NEtG = CCNCC(=O)O; βAla = NCCC(=O)O; Sar = CNCC(=O)O
System: Human pancreatic cancer cell line AsPC-1 (G12D mutation Kras)
Test: AsPC-1 cell growth inhibition (AsPC-1 CGI)
Format: cell-based
Settings: read-out: AsPC-1 cell growth inhibition, 50% growth inhibitory concentration (IC50 value); 96 hours, CellTiter-Glo, values classified in ranges
Procedure: Test compounds were serially dilated with dimethyl sulfoxide, and 200 nL was then dispensed to a U-bottom 96-well plate using Labcyte Echo. […] The cell suspension was dispensed to a. plate containing a test compound at 100 μL per well and incubated at 37° C. in a 5% carbon dioxide gas incubator. 96 hours later, 80 μL of CellTiter-Glo (Promega) was added to each well and fluorescence was measured.

Compound | IC50
CC[C@H](C)[C@@H]1NC(=O)[C@H](CC(C)C)N(C)C(=O)C[C@@H](C)NC(=O)[C@H](CC(C)C)N(C)C(=O)C2(CCC2)NC(=O)[C@@H]2CCCN2C(=O)[C@H](CCc2ccc(C(F)(F)F)c(F)c2)NC(=O)CN(C)C(=O)[C@H](CC2CCCCC2)N(C)C(=O)CN(C)C(=O)CN(C)C1=O [Compound 133] (cyclo([Ac4c][NMeL][d(β3hA)][NMeL]I[Sar][Sar][NMeCha][Sar][hPhe(3-F,4-CF3)]P)) | > 500 nM
CC[C@H](C)[C@@H]1NC(=O)[C@H](C)N(C)C(=O)C[C@@H](C)NC(=O)[C@H](C2CCCC2)N(C)C(=O)C2(CCCC2)NC(=O)[C@@H]2CCCN2C(=O)[C@H](CCc2ccc(C(F)(F)F)c(Cl)c2)NC(=O)CN(C)C(=O)[C@H](Cc2ccc(F)cc2)N(C)C(=O)[C@@H]2CCCN2C(=O)CN(C)C1=O [Compound 146] (cyclo([Ac5c][NMeGly(cPent)][d(β3hA)][NMeA]I[Sar]P[NMePhe(4-F)][Sar][hPhe(3-Cl-4-CF3)]P)) | > 500 nM
CCCC[C@@H]1NC(=O)[C@H](Cc2cccc(I)c2)NC(=O)CN(C)C(=O)[C@H](Cc2ccc(Cl)cc2)N(C)C(=O)CN(C)C(=O)CN(C)C(=O)[C@H]([C@@H](C)CC)NC(=O)[C@H](CC(C)C)N(C)C(=O)C[C@@H](C(=O)N2CCCCC2)N(C)C(=O)[C@H](CC(C)C)NC(=O)[C@H](Cc2ccccc2OC)N(C)C1=O [Compound 259] ([NMeL]I[Sar][Sar][NMePhe(4-Cl)][Sar][Phe(3-I)][Nle][NMePhe(2-OMe)]L[NMeD]-Piperidide; lactam N-11) | > 500 nM
CCC[C@H]1C(=O)N[C@@H]([C@@H](C)CC)C(=O)N(C)CC(=O)N(C)CC(=O)N(C)[C@@H](Cc2ccc(C)cc2)C(=O)N(C)CC(=O)N[C@@H](CCc2cc(F)c(C(F)(F)F)c(F)c2)C(=O)N2CC(F)(F)C[C@H]2C(=O)NC2(CCCC2)C(=O)N(C)[C@@H](C2CCCCC2)C(=O)N(C)[C@H](C(=O)N2CCCC2)CC(=O)N1C [Compound 1306] ([NMeNva]I[Sar][Sar][NMePhe(4-Me)][Sar][hPhe(3,5-F2-4-CF3)][Pro(4,4-F2)][Ac5c][NMeChg][NMeD]-Pyrrolidide; lactam N-11) | ≤ 20 nM
CCCC[C@@H]1NC(=O)[C@H](Cc2cccc(I)c2)NC(=O)CN(C)C(=O)[C@H](Cc2ccc(Cl)cc2)N(C)C(=O)CN(C)C(=O)CN(C)C(=O)[C@H]([C@@H](C)CC)NC(=O)[C@H](CC(C)C)N(C)C(=O)C[C@@H](C(=O)N2CCCCC2)N(C)C(=O)[C@H](CC(C)C)NC(=O)[C@H](Cc2cccc(OC(F)(F)F)c2)N(C)C1=O [Compound 143] ([NMeL]I[Sar][Sar][NMePhe(4-Cl)][Sar][Phe(3-I)][Nle][X49]L[NMeD]-Piperidide; lactam N-11) | > 500 nM
CC[C@H](C)[C@@H]1NC(=O)[C@H](CC(C)C)N(C)C(=O)CCNC(=O)[C@H](C(C)C)N(C)C(=O)C2(CCCC2)NC(=O)[C@@H]2CCCN2C(=O)[C@H](CCc2ccc(C(F)(F)F)c(Cl)c2)NC(=O)CN(C)C(=O)[C@H](CC2CCCCC2)N(C)C(=O)CN(C)C(=O)CN(C)C1=O [Compound 979] (cyclo([Ac5c][NMeV][βAla][NMeL]I[Sar][Sar][NMeCha][Sar][hPhe(3-Cl-4-CF3)]P)) | > 500 nM
CC[C@H](C)[C@@H]1NC(=O)[C@H](CC(C)C)N(C)C(=O)C[C@@H](C(=O)N2CCCCC2)N(C)C(=O)[C@H](C(C)C)N(C)C(=O)[C@H](C)NC(=O)[C@H](CC(=O)N2CCC(F)(F)CC2)N(C)C(=O)[C@H](CCc2ccc(C(F)(F)F)c(Cl)c2)NC(=O)CN(C)C(=O)[C@H](CC2CCCCC2)N(C)C(=O)CN(C)C(=O)CN(C)C1=O [Compound 444] ([NMeL]I[Sar][Sar][NMeCha][Sar][hPhe(3-Cl-4-CF3)][NMeD](N(CH2CH2)2CF2)A[NMeV][NMeD]-Piperidide; lactam N-11) | > 500 nM
CC[C@H](C)[C@@H]1NC(=O)[C@H](CC(C)C)N(C)C(=O)C[C@@H](C(=O)N2CCCCC2)N(C)C(=O)[C@H](CC(C)C)NC(=O)C(C)(C)N(C)C(=O)[C@H](Cc2ccc(OC)cc2)NC(=O)[C@H](Cc2cccc(I)c2)NC(=O)CN(C)C(=O)[C@H](CC2CCCCC2)N(C)C(=O)[C@@H]2CCN2C(=O)[C@H](C)N(C)C1=O [Compound 169] ([NMeL]I[NMeA][Aze][NMeCha][Sar][Phe(3-I)]Y(Me)[NMeAib]L[NMeD]-Piperidide; lactam N-11) | > 500 nM
CC[C@H](C)[C@@H]1NC(=O)[C@H](CC(C)C)N(C)C(=O)C[C@@H](C)NC(=O)[C@H](CC(C)C)N(C)C(=O)C(C)(C)NC(=O)[C@H](COCC(C)(C)O)N(C)C(=O)[C@H](CCc2ccc(C(F)(F)F)c(Cl)c2)NC(=O)CN(C)C(=O)[C@H](COCCC(C)C)N(C)C(=O)CN(CC)C(=O)CN(C)C1=O [Compound 1484] (cyclo([Aib][NMeL][d(β3hA)][NMeL]I[Sar][NEtG][NMeS](Isopentyl)[Sar][hPhe(3-Cl-4-CF3)][NMeS](CH2CMe2OH))) | > 500 nM
CC[C@H](C)[C@@H]1NC(=O)[C@H](CC(C)C)N(C)C(=O)C[C@@H](C(=O)N2CCCCC2)N(C)C(=O)[C@H](C2CC2)N(C)C(=O)C2(CCCC2)NC(=O)[C@@H]2CCCN2C(=O)[C@H](CCc2ccc(C(F)(F)F)c(Cl)c2)NC(=O)CN(C)C(=O)[C@H](CC2CCCCC2)N(C)C(=O)CN(C)C(=O)CN(C)C1=O [Compound 197] ([NMeL]I[Sar][Sar][NMeCha][Sar][hPhe(3-Cl-4-CF3)]P[Ac5c][NMeGly(cPr)][NMeD]-Piperidide; lactam N-11) | > 500 nM
